The subject of experiment [1] is senescent cells. Kind of experiment: Tissue and organ analyses after sacrifice (adipose cell diameter, muscle fiber diameter, skin thickness, cardiac performance, glomerulosclerosis) in AP20187-treated INK-ATTAC mice. Type of experiment: in vivo, INK-ATTAC transgenic mice. Particulars: treated vs untreated. How it is done: (§1) Clearance of therapy-induced senescent cells improves age-sensitive traits and other health parameters in aged animals. […] INK-ATTAC transgenic animals from each of lineage 3 (TG3) and lineage 5 (TG5) were used in the experiments (see Baker et al., Nature, supra). INK-ATTAC transgenic mice were aged 10-12 weeks, and then cohorts of animals were treated with AP20187 or PBS (control) on a weekly basis from the start of treatment.
(§2) When the animals reached 18 months of age, several measures of health and lifespan were taken. Weight, fat mass, activity measurements (treadmill exercise tests to measure distance traveled and duration of exercise) were compared between untreated female mice (n=16) and AP20187-treated female mice (n=21), and compared between untreated male mice (n=19) and AP20187-treated male mice (n=21). Fat mass was greater in both treated females and males compared with the untreated groups (see FIG. 5). […] Treated and untreated mice (5-6 per group) were sacrificed, and adipose cell (AC) diameter, gastrocnemius muscle fiber diameter (μm), abdominal muscle fiber diameter (μm), dermal thickness (μm), subdermal adipose thickness (μm), cardiac performance (introduction of isoproterenol as an exogenous stress in animals prior to sacrifice), and extent of glomerulosclerosis were determined. Treated animals had greater adipose cell diameter (see FIG. 6); better cardiac performance (FIG. 7); and had less sclerotic glomeruli (see FIG. 8) than untreated animals. […] Removal of senescent cells in AP20187-treated animals prevented loss of adipose tissue, prevented loss of cardiac performance, and reduced the extent of glomerulosclerosis.

In experiment [2] the test system is senescent cells. The experiment in a line: Lifespan of wild type INK-ATTAC transgenic mice with senescent cells removed by weekly AP20187. Type of experiment: in vivo. Particulars: weekly treatment from 10-12 weeks of age; PBS control 21 months; FIG. 4. How it is done: as §1
In experiment [3] the test system is senescent cells. The experiment in a line: Measures of health at 18 months of age (weight, fat mass, treadmill activity) in AP20187-treated INK-ATTAC mice. Type of experiment: in vivo, INK-ATTAC transgenic mice. How it is done:
as §1, §2

Turning to `CC[C@H](C(=O)N1CCCC[C@H]1C(=O)O[C@H](CCc1ccc(OC)c(OC)c1)c1cccc(OCC(=O)NCC(CNC(=O)COc2cccc([C@@H](CCc3ccc(OC)c(OC)c3)OC(=O)[C@@H]3CCCCN3C(=O)[C@@H](CC)c3cc(OC)c(OC)c(OC)c3)c2)CN(C)C)c1)c1cc(OC)c(OC)c(OC)c1` [AP20187], in the experiment on senescent cells [1] (isoproterenol as exogenous stress prior to sacrifice, FIG. 7), the cardiac performance entry is on record as “better”. The “adipose cell (AC) diameter” value with senescent cells [1] (sacrificed mice, 5-6 per group, FIG. 6) is on record as “greater”. Besides, in the experiment with senescent cells [1] (sacrificed mice), the “abdominal muscle fiber diameter” value was “No significant differences”, the dermal thickness result is “No significant differences”, the “gastrocnemius muscle fiber diameter” value is listed as “No significant differences” and the subdermal adipose thickness entry is on record as “No significant differences”. Also, in the experiment with senescent cells [1] (sacrificed mice, FIG. 8), the “extent of glomerulosclerosis (sclerotic glomeruli)” value was “less”. In the experiment with senescent cells [2], the average lifespan result was “approximately 26 months”. In the experiment on senescent cells [3] (treated females and males each vs untreated group of same sex, FIG. 5), the fat mass result is “greater”. In addition, in the experiment with senescent cells [3] (treated vs untreated animals), the “activity measurements (treadmill exercise tests: distance traveled and duration of exercise)” value is reported as “No statistically significant differences”; the weight entry was “No statistically significant differences”.

Source of the values: patent US10655144B2, “Nucleic acid construct with a p16 promoter that causes a prodrug converting enzyme to be expressed specifically in senescent cells” (Buck Institute for Research on Aging, priority 2012, dated 2020).
